# From paper PMC11773557, “NADPH-Independent Fluorescent Probe for Live-Cell Imaging of Heme Oxygenase-1” (ACS Sensors, 2025)
# Where a SMILES comes first, the peptide text is derived from it. The star is where a group is joined. NBD = O=[N+]([O-])c1ccc(*)c2nonc12; Ahx = NCCCCCC(=O)O
# B1: Heme oxygenase-1 (enzyme)
# chain: MERPQPDSMPQDLSEALKEATKEVHTQAENAEFMRNFQKGQVTRDGFKLVMASLYHIYVALEEEIERNKESPVFAPVYFPEELHRKAALEQDLAFWYGPRWQEVIPYTPAMQRYVKRLHEVGRTEPELLVAHAYTRYLGDLSGGQVLKKIAQKALDLPSSGEGLAFFTFPNIASATKFKQLYRSRMNSLEMTPAVRQRVIEEAKTAFLLNIQLFEELQELLTHDTKDQSPSRAPGLRQRASNKVQDSAPVETPRGKPPLNTRSQAPLLRWVLTLSFLVATVAVGLYAM
# Experiments:
# [1] = molecular target: T1, recombinant HO-1 protein with a 6xHis tag (Homo sapiens, UniProt P09601); assay: Luminescence titration of NBD-Pn with HO-1; type: binding; conditions: 4.5 μM HO-1, 2 μM probe, pH 7.4 PBS, λex = 475 nm; for increase in fluorescence intensity on addition of HO-1: emission at 526 nm, measured within 1 min
# T1 construct: 6xHis
# T1 sequence (P09601 1-288): B1 chain
# Description: (§1) 4. Photophysical measurements
# (§2) All spectra were measured using a stock solution of the probes (1 mM in DMSO) which was diluted with pH 7.4 PBS buffer to the desired concentration. […]
# All measurements were conducted using a 700 μL quartz cuvette and within a minute after addition of the analyte. […]
# A549 cells [2] = assay: Flow cytometry analysis of cellular uptake; type: cell-based, human; conditions: 10 μM, time course of 2.5 h
# Description: (§3) 37°C for 24 h. Cells were treated with 50 μM hemin, 1 μM ZnPP or DMSO. […]
# 8. Flow cytometry analysis
# A549 cells were first seeded into 12-well plates (1.0 × 10^5 cells/well) and incubated overnight to achieve adherence. Then, 10 μM NBD-P 5 was added, and incubated for different times. The cells were washed twice with cold PBS and harvested by trypsinization, followed by centrifugation (1500 x g, 5.0 min). The obtained cells were re-suspended in PBS and analyzed using flow cytometry (BD […]
# (§4) 37°C for 24 h. Cells were treated with 50 μM hemin, 1 μM ZnPP or DMSO. After 24 h incubation, 10 μM NBD-P 5 was added and incubated with the cells for 2 h. The cells were then fixed with 4% polyoxymethylene for 20 min. Afterwards, the nuclei were stained using DAPI for 20 min. […]
# [3] = molecular target: bovine serum albumin (BSA) (Bos taurus, UniProt P02769); assay: Selectivity assay, emission with BSA; type: binding; conditions: 4.5 μM BSA, 2 μM probe, pH 7.4 PBS, emission at 526 nm
# Description: as §1, §2
# (§5) Selectivity assay was performed by measuring emission of NBD-Pn in pH 7.4 PBS buffer in presence of varying analytes including HO-1, common proteins, amino acids, and biologically relevant ions. All measurements were conducted using a 700 μL quartz cuvette and within a minute after addition of the analyte. […]
# A549 cells [4] = assay: Colocalization experiment with organelle trackers; type: cell-based, human; conditions: 10 μM probe 2 h
# Description: 10. Colocalization experiment
# A549 cells (8×10^3 cells per well) were seeded into confocal dish and incubated in a CO2 incubator at 37°C for 24 h. After incubation with NBD-P5 (10 μM) for 2 h, cells were co-stained with ER-Tracker red (400 nM) for 20 min, Lyso-Tracker red (60 nM) for 30 min, or Mito-Tracker red (50 nM) for 30 min. Fluorescence images were measured by ZEISS LSM 980 with Airyscan 2 confocal laser scanning
# [5] = molecular target: human serum albumin (HSA) (Homo sapiens, UniProt P02768); assay: Selectivity assay, emission with HSA; type: binding; conditions: 4.5 μM HSA, 2 μM probe, pH 7.4 PBS, emission at 526 nm
# Description: as §1, §2, §5
# [6] = test system: HO-1 levels in live A549 cells; assay: Fluorescence imaging of HO-1 levels with NBD-P5 in treated A549 cells; type: cell-based, human; conditions: A549 cells pretreated 24 h (hemin 50 μM, ZnPP 1 μM), then NBD-P5 10 μM 2 h, confocal imaging
# Description: as §3
# A549 cells (8×10^3 cells per well) were seeded into confocal dish and incubated in a CO2 incubator at 37°C for 24 h. Cells were treated with 50 μM hemin, 1 μM ZnPP or DMSO. After 24 h incubation, 10 μM NBD-P 5 was added and incubated with the cells for 2 h. The cells were then fixed with 4% polyoxymethylene for 20 min. Afterwards, the nuclei were stained using DAPI for 20 min.
# Fluorescence images were measured by ZEISS LSM 980 with Airyscan 2 confocal laser scanning
# [7] = test system: HO-1 expression in A549 cells; assay: HO-1 ELISA of treated A549 cells; type: cell-based, human; conditions: 24 h, HO-1 ELISA kit, versus DMSO control
# Description: 7. Enzyme linked immunosorbent assay (ELISA)
# A549 cells (8×10^3 cells per well) were seeded in 6-well plates and incubated in a CO2 incubator at 37°C for 24 h. Cells were treated with 50 μM hemin, 1 μM ZnPP or DMSO. After 24 h incubation, cells were washed with PBS, lysed with NP-40 buffer containing 1.0 mM PMSF, followed by centrifugation (12000 rpm, 5 min) to harvest the supernatant. The assay was carried out by strictly following instructions provided. Absorbance at 450 nm was recorded using the BioTek Synergy-2 Microplate Reader to calculate the HO-1 concentration under different treatments. […]
# as §4
# HO-1 expression = conditions: study by Fang and co-workers; cited from earlier work
# NBD-P4 = molecular target: T2, NBD-P4; assay: other fluorescence titration; emission of the NBD probe (2 uM, ex 475 nm, read at 526 nm) on addition of protein in solution (HO-1 in increasing concentrations up to 4.5 uM; HSA, BSA at 4.5 uM); measured within a minute after addition; conditions: both partners purified
# T2 construct: caveolin-1 residues Y97-Y100 (the pentapeptide without arginine 101); also called YWFY-CONH2; NBD-Pn (n = 4); source: synthetic peptide, NBD-Ahx coupled with PyBOP, TFA cleavage, reversed-phase HPLC
# T2 peptide: {NBD-Ahx}-YWFY-NH2
# NBD-P5 = molecular target: T3, NBD-P5; assay: as above; conditions: both partners purified
# T3 construct: also called YWFYR-CONH2; NBD-Pn (n = 5); source: synthetic peptide, NBD-Ahx coupled with PyBOP, TFA cleavage, reversed-phase HPLC
# T3 peptide: {NBD-Ahx}-YWFYR-NH2
# Chain of human serum albumin (HSA) (P02768 25-609): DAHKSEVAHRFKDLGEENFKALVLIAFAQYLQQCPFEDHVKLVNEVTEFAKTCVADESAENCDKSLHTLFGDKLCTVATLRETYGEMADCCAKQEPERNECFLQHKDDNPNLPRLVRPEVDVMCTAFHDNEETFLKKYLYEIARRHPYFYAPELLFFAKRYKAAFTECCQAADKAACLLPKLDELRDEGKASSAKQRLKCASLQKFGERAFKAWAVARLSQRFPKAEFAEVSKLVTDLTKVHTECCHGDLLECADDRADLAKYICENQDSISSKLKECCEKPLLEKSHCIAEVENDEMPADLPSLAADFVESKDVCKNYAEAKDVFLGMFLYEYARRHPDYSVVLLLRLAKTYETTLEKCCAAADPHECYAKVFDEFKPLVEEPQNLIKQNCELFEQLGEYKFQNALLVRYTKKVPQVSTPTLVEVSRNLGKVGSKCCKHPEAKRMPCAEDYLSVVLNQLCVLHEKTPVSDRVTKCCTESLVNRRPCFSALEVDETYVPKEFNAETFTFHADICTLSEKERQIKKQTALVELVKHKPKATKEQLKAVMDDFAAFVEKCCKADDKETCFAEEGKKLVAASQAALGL
# Chain of bovine serum albumin (BSA) (P02769 25-607): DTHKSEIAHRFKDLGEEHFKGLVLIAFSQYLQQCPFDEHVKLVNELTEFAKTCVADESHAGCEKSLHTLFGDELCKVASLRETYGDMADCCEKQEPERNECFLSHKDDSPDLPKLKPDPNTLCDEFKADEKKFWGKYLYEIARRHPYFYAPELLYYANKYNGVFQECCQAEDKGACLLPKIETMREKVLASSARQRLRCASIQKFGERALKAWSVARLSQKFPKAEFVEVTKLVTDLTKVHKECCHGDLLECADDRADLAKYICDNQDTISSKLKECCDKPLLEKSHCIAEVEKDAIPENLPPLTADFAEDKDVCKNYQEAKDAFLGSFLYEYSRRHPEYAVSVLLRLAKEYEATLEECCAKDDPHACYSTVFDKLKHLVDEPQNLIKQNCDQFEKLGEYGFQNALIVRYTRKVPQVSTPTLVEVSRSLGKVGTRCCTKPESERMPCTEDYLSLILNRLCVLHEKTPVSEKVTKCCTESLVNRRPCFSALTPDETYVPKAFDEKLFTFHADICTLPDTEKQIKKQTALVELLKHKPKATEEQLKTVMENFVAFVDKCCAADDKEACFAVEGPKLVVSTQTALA
molecule,measurement,setting,value
NC(=O)[C@H](Cc1ccc(O)cc1)NC(=O)[C@H](Cc1ccccc1)NC(=O)[C@H](Cc1c[nH]c2ccccc12)NC(=O)[C@H](Cc1ccc(O)cc1)NC(=O)CCCCCNc1ccc([N+](=O)[O-])c2nonc12 [NBD-P4] (HELM PEPTIDE1{[O=[N+]([O-])c1ccc([*:2])c2nonc12].[O=C(CCCCCN[*:1])[*:2]].Y.W.F.Y.[am]}$$$$V2.0),increase in fluorescence intensity on addition of HO-1,[1],6 fold
N=C(N)NCCC[C@H](NC(=O)[C@H](Cc1ccc(O)cc1)NC(=O)[C@H](Cc1ccccc1)NC(=O)[C@H](Cc1c[nH]c2ccccc12)NC(=O)[C@H](Cc1ccc(O)cc1)NC(=O)CCCCCNc1ccc([N+](=O)[O-])c2nonc12)C(N)=O [NBD-P5] (HELM PEPTIDE1{[O=[N+]([O-])c1ccc([*:2])c2nonc12].[O=C(CCCCCN[*:1])[*:2]].Y.W.F.Y.R.[am]}$$$$V2.0),uptake by A549 cells,A549 cells [2],increased rapidly in the first 1 h
same,fluorescence change on addition of BSA,[3],small fluorescence increase
same,Pearson's correlation coefficient with ER-Tracker red,"A549 cells [4]; ER-Tracker red 400 nM 20 min, ImageJ",0.97
same,colocalization with either Lyso-Tracker or Mito-Tracker,A549 cells [4]; Lyso-Tracker red 60 nM or Mito-Tracker red 50 nM 30 min,not as significant as that with ER-Tracker
same,blue shift in fluorescence wavelength maxima on addition of HO-1,[1],24 nm
same,increase in fluorescence intensity on addition of HO-1,[1],9 fold
same,fluorescence change on addition of HSA,[5],small fluorescence increase
"C=CC1=C(C)c2cc3[n-]c(cc4[n-]c(cc5nc(cc1n2)C(C)=C5C=C)c(C)c4CCC(=O)O)c(CCC(=O)O)c3C.[Zn+2] [ZnPP, zinc(II) protoporphyrin]",NBD-P5 fluorescence in treated cells compared with control cells,[6],relatively weaker fluorescence signal
same,HO-1 level relative to DMSO control,[7]; 1 μM,0.89 fold
CC(C)(C)c1cc(O)ccc1O [tBHQ],upregulation of HO-1,HO-1 expression,about 1.6 fold
hemin,NBD-P5 fluorescence in treated cells compared with control cells,[6],significantly stronger green fluorescence
same,upregulation of HO-1 expression,[7]; 50 μM,around 1.53 fold
B1,fold increase in fluorescence intensity of the probe with HO-1,NBD-P4,6 fold
same,fold increase in fluorescence intensity of the probe with 4.5 uM HO-1,NBD-P5,9 fold
